Counter-ions that a name gives are not always drawn.
The compounds below were run against T1, Melanin Concentrating Hormone Receptor 1 (MCHR1) (Homo sapiens, UniProt Q99705) (assay: MCHR1 Receptor Activation Assay (GTPγ^35S)). Details: read-out: GTPγ^35S IC50.
T1 construct: expressed in transfected cells
Assay type: biochemical

T1 sequence (Q99705 whole entry): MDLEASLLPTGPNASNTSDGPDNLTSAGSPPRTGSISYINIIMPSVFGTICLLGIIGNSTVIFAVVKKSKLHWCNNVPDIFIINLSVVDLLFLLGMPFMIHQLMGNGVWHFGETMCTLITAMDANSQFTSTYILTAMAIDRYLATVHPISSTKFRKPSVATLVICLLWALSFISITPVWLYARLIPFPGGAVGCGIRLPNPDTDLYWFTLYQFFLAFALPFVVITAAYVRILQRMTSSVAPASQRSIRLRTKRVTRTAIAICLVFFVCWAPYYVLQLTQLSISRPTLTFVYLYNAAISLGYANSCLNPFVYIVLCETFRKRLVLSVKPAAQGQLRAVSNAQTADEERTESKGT

Compound | IC50
COCCN(C)Cc1ccc(SC2CN(C(=O)c3nnc(-c4ccccc4)o3)C2)cc1 [Example 61, (3-(4-(((2-Methoxyethyl)(methyl)amino)methyl)phenylthio)azetidin-1-yl)(5-phenyl-1,3,4-oxadiazol-2-yl)methanone hydrochloride] | 22 nM
Cc1ccc(-c2nnc(C(=O)N3CC(Oc4ccc(CN5CCN(C)CC5)cc4C)C3)o2)cc1 [Example 11, (3-(2-Methyl-4-((4-methylpiperazin-1-yl)methyl)phenoxy)azetidin-1-yl)(5-p-tolyl-1,3,4-oxadiazol-2-yl)methanone] | 51 nM
CN1CCN(Cc2ccc(OC3CN(C(=O)c4nnc(-c5ccccc5)o4)C3)cc2F)CC1 [Example 29, (3-(3-Fluoro-4-((4-methylpiperazin-1-yl)methyl)phenoxy)azetidin-1-yl)(5-phenyl-1,3,4-oxadiazol-2-yl)methanone] | 86 nM
CC1(O)CN(Cc2ccc(OC3CN(C(=O)c4nnc(-c5ccccc5)o4)C3)c(Cl)c2)C1 [Example 78, (3-(2-Chloro-4-((3-hydroxy-3-methylazetidin-1-yl)methyl)phenoxy)azetidin-1-yl)(5-phenyl-1,3,4-oxadiazol-2-yl)methanone] | 42 nM
O=C(c1nnc(-c2ccccc2)o1)N1CC(Sc2ccc(CN3CC(CO)C3)cc2)C1 [Example 67, (3-(4-((3-(Hydroxymethyl)azetidin-1-yl)methyl)phenylthio)azetidin-1-yl)(5-phenyl-1,3,4-oxadiazol-2-yl)methanone] | 23 nM
COc1ccc(-c2nnc(C(=O)N3CC(Oc4ccc(CN5CCN(C)CC5)c(Cl)c4)C3)o2)cc1 [Example 49, (3-(3-Chloro-4-((4-methylpiperazin-1-yl)methyl)phenoxy)azetidin-1-yl)(5-(4-methoxyphenyl)-1,3,4-oxadiazol-2-yl)methanone] | 37 nM
COc1ccc(-c2nnc(C(=O)N3CC(Oc4ccc(CN5CCC(F)(CO)CC5)cc4)C3)o2)cc1 [Example 81, (3-(4-((4-Fluoro-4-(hydroxymethyl)piperidin-1-yl)methyl)phenoxy)azetidin-1-yl)(5-(4-methoxyphenyl)-1,3,4-oxadiazol-2-yl)methanone] | 25 nM
Cc1cc(OC2CN(C(=O)c3nnc(-c4ccccc4)o3)C2)ccc1CN1CCC(C)(CO)CC1 [Example 69] | 22 nM
Cc1ccc(-c2nnc(C(=O)N3CC(Oc4ccc(CN(C)C)cc4C)C3)o2)cc1 [Example 18, (3-(4-((Dimethylamino)methyl)-2-methylphenoxy)azetidin-1-yl)(5-p-tolyl-1,3,4-oxadiazol-2-yl)methanone] | 25 nM
O=C(c1nnc(-c2ccccc2)o1)N1CC(Oc2ccc(CN3CC(O)C3)cc2Cl)C1 [Example 58, (3-(2-Chloro-4-((3-hydroxyazetidin-1-yl)methyl)phenoxy)azetidin-1-yl)(5-phenyl-1,3,4-oxadiazol-2-yl)methanone] | 29 nM
CN(C)Cc1ccc(OC2CN(C(=O)c3nnc(-c4ccccc4)o3)C2)cc1 [Example 33, (3-(4-((Dimethylamino)methyl)phenoxy)azetidin-1-yl)(5-phenyl-1,3,4-oxadiazol-2-yl)methanone] | 34 nM
COc1ccc(-c2nnc(C(=O)N3CC(Oc4ccc(CN(C)C)c(F)c4)C3)o2)cc1 [Example 27, (3-(4-((Dimethylamino)methyl)-3-fluorophenoxy)azetidin-1-yl)(5-(4-methoxyphenyl)-1,3,4-oxadiazol-2-yl)methanone] | 21 nM
CCC1(O)CN(Cc2ccc(OC3CN(C(=O)c4nnc(-c5ccccc5)o4)C3)cc2)C1 [Example 71, (3-(4-((3-Ethyl-3-hydroxyazetidin-1-yl)methyl)phenoxy)azetidin-1-yl)(5-phenyl-1,3,4-oxadiazol-2-yl)methanone] | 23 nM
COc1ccc(-c2nnc(C(=O)N3CC(Oc4ccc(CN5CCOCC5)cc4C)C3)o2)cc1 [Example 12, (5-(4-Methoxyphenyl)-1,3,4-oxadiazol-2-yl)(3-(2-methyl-4-(morpholinomethyl)-phenoxy)azetidin-1-yl)methanone] | 30 nM
CC(=O)N1CCN(Cc2ccc(OC3CN(C(=O)c4nnc(-c5ccc(Cl)cc5)o4)C3)cc2)CC1 [Example 25, 1-(4-(4-(1-(5-(4-Chlorophenyl)-1,3,4-oxadiazole-2-carbonyl)azetidin-3-yloxy)benzyl)piperazin-1-yl)ethanone] | 34 nM

Next, values leading:

IC50 | Compound
20 nM | CCC1(O)CN(Cc2ccc(OC3CN(C(=O)c4nnc(-c5ccc(OC)cc5)o4)C3)cc2)C1 [Example 70, (3-(4-((3-Ethyl-3-hydroxyazetidin-1-yl)methyl)phenoxy)azetidin-1-yl)(5-(4-methoxyphenyl)-1,3,4-oxadiazol-2-yl)methanone]
20 nM | O=C(c1nnc(-c2ccccc2)o1)N1CC(Oc2ccc(CN3CCCC3)c(F)c2)C1 [Example 31, (3-(3-Fluoro-4-(pyrrolidin-1-ylmethyl)phenoxy)azetidin-1-yl)(5-phenyl-1,3,4-oxadiazol-2-yl)methanone]
19 nM | CC1(CO)CCN(Cc2ccc(OC3CN(C(=O)c4nnc(-c5ccccc5)o4)C3)cc2)C1 (stereo not shown) [Example 85, (3-(4-((3-(hydroxymethyl)-3-methylpyrrolidin-1-yl)methyl)phenoxy)azetidin-1-yl)(5-phenyl-1,3,4-oxadiazol-2-yl)methanone]
19 nM | CN(C)Cc1ccc(SC2CN(C(=O)c3nnc(-c4ccccc4)o3)C2)cc1 [Example 60, (3-(4-((Dimethylamino)methyl)phenylthio)azetidin-1-yl)(5-phenyl-1,3,4-oxadiazol-2-yl)methanone]
19 nM | CN(C)Cc1ccc(OC2CN(C(=O)c3nnc(-c4ccc(C(F)(F)F)cc4)o3)C2)cc1 [Example 35, (3-(4-((dimethylamino)methyl)phenoxy)azetidin-1-yl)(5-(4-(trifluoromethyl)phenyl)-1,3,4-oxadiazol-2-yl)methanone]
19 nM | COc1ccc(-c2nnc(C(=O)N3CC(Oc4ccc(CN(C)C)c(Cl)c4)C3)o2)cc1 [Example 47, (3-(3-Chloro-4-((dimethylamino)methyl)phenoxy)azetidin-1-yl)(5-(4-methoxyphenyl)-1,3,4-oxadiazol-2-yl)methanone]
18 nM | CSc1ccc(-c2nnc(C(=O)N3CC(Oc4ccc(CN(C)C)cc4)C3)o2)cc1 [Example 34, (3-(4-((Dimethylamino)methyl)phenoxy)azetidin-1-yl)(5-(4-(methylthio)phenyl)-1,3,4-oxadiazol-2-yl)methanone]
17 nM | COc1ccc(-c2nnc(C(=O)N3CC(Oc4ccc(CN5CCCC(C)(O)CC5)cc4)C3)o2)cc1 (stereo not shown) [Example 88, (3-(4-((4-hydroxy-4-methylazepan-1-yl)methyl)phenoxy)azetidin-1-yl)(5-(4-methoxyphenyl)-1,3,4-oxadiazol-2-yl)methanone]
16 nM | COc1ccc(-c2nnc(C(=O)N3CC(Oc4ccc(CN5CCC(C)(CO)C5)cc4C)C3)o2)cc1 (stereo not shown) [Example 90, (3-(4-((3-(hydroxymethyl)-3-methylpyrrolidin-1-yl)methyl)-2-methylphenoxy)azetidin-1-yl)(5-(4-methoxyphenyl)-1,3,4-oxadiazol-2-yl)methanone]
15 nM | CCC1(O)CN(Cc2ccc(OC3CN(C(=O)c4nnc(-c5ccc(OC)cc5)o4)C3)c(C)c2)C1 [Example 72, (3-(4-((3-Ethyl-3-hydroxyazetidin-1-yl)methyl)-2-methylphenoxy)azetidin-1-yl)(5-(4-methoxyphenyl)-1,3,4-oxadiazol-2-yl)methanone]
15 nM | COc1ccc(-c2nnc(C(=O)N3CC(Oc4ccc(CN5CCCC(O)CC5)cc4)C3)o2)cc1 (stereo not shown) [Example 86, (3-(4-((4-hydroxyazepan-1-yl)methyl)phenoxy)azetidin-1-yl)(5-(4-methoxyphenyl)-1,3,4-oxadiazol-2-yl)methanone]
15 nM | CCC1(CO)CCN(Cc2ccc(OC3CN(C(=O)c4nnc(-c5ccc(OC)cc5)o4)C3)cc2)CC1 [Example 92, (3-(4-((4-Ethyl-4-(hydroxymethyl)piperidin-1-yl)methyl)phenoxy)azetidin-1-yl)(5-(4-methoxyphenyl)-1,3,4-oxadiazol-2-yl)methanone]
14 nM | CCC1(O)CN(Cc2ccc(OC3CN(C(=O)c4nnc(-c5ccc(OC)cc5)o4)C3)cc2C)C1 [Example 73, (3-(4-((3-Ethyl-3-hydroxyazetidin-1-yl)methyl)-3-methylphenoxy)azetidin-1-yl)(5-(4-methoxyphenyl)-1,3,4-oxadiazol-2-yl)methanone]
12 nM | CN(Cc1ccc(SC2CN(C(=O)c3nnc(-c4ccccc4)o3)C2)cc1)C1CCOCC1 [Example 64]
11 nM | COc1ccc(-c2nnc(C(=O)N3CC(Sc4ccc(CN5CCCC5)cc4)C3)o2)cc1 [Example 59, (5-(4-Methoxyphenyl)-1,3,4-oxadiazol-2-yl)(3-(4-(pyrrolidin-1-ylmethyl)phenylthio)azetidin-1-yl)methanone]
8.1 nM | CC1(O)CCCN(Cc2ccc(OC3CN(C(=O)c4nnc(-c5ccccc5)o4)C3)cc2)CC1 (stereo not shown) [Example 87, (3-(4-((4-hydroxy-4-methylazepan-1-yl)methyl)phenoxy)azetidin-1-yl)(5-phenyl-1,3,4-oxadiazol-2-yl)methanone]
7 nM | O=C(c1nnc(-c2ccc(Cl)cc2)o1)N1CC(Oc2ccc(CN3CCCC3)cc2)C1 [Example 1, (5-(4-Chlorophenyl)-1,3,4-oxadiazol-2-yl)(3-(4-(pyrrolidin-1-ylmethyl)phenoxy)azetidin-1-yl)methanone]

Same assay, conditions: separated enantiomers of Example 84 (chiral chromatography fractions); assay not given; read-out: IC50

IC50 | Compound
28 nM | COc1ccc(-c2nnc(C(=O)N3CC(Oc4ccc(CN5CCC(C)(CO)C5)cc4)C3)o2)cc1 (single isomer, unassigned; (-)) [Example E1, (−)(3-(4-((3-(hydroxymethyl)-3-methylpyrrolidin-1-yl)methyl)phenoxy)azetidin-1-yl)(5-(4-methoxyphenyl)-1,3,4-oxadiazol-2-yl)methanone]

Same assay, conditions: when tested in the above referenced assays (MCH binding assay; MCHR1 receptor activation assay); read-out: IC50 value

IC50 | Compound
≥ 100 nM | Cc1cc(OC2CN(C(=O)c3nnc(-c4ccccc4)o3)C2)ccc1CN(C1CC1)C1CC1 [[3-[4-[(dicyclopropylamino)methyl]-3-methyl-phenoxy]azetidin-1-yl]-(5-phenyl-1,3,4-oxadiazol-2-yl)methanone]
